Where two headings read alike, the source gives them in different places.

By MIC is commonly meant the lowest concentration found to suppress growth.

In one test the target is KPC-93 (Klebsiella pneumoniae, UniProt Q9F663). Nature of the test: Enzyme activity determination (nitrocefin hydrolysis). Type of test: biochemical. Conditions: read-out: semi-inhibitory concentration IC50 for KPC-93.
The next test concerns Hvkp2 strain. Nature of the test: Treatment of mice infected with Hvkp2 strain. It is filed as in vivo, ICR mice. Conditions: monotherapy 16 mg/kg; for survival rate: after 24 hours of Hvkp2 infection, mice. The procedure:
The experiment was conducted on mice infected with Hvkp2 strain for treatment. A total of 35 male ICR mice of SPF grade at four weeks old were selected and divided into seven groups. The […] were set as the saline control group, AN2718 monotherapy group (16 mg/kg), Meropenem monotherapy group (16 mg/kg), AN2718/Meropenem combination group 1 (8 mg/kg+8 mg/kg), AN2718/Meropenem combination group 2 (8 mg/kg+16 mg/kg), AN2718/Meropenem combination group 3 (16 mg/kg+8 mg/kg) and AN2718/Meropenem combination group 4 ([…]), respectively. First, incubate Hvkp2 overnight at 37° C., activate it, and resuspend it with physiological saline. Adjust the bacterial concentration to approximately 1×10^6 CFU/mL, spare. […]. Inject saline or medication 1 hours after infection. After 12 hours, the second dose of medication was administered for treatment, with a total of five injections and a time interval of 12 hours between each injection. Observe and count the survival status of each group of mice during the experiment.
This experiment used SPSS 20.0 software to statistically process and analyze the data represented by (X±SD). Multiple comparisons and one-way ANOVA were used to analyze and compare the data of each group. (P<0.05 indicates a significant difference, and P<0.01 indicates a highly significant difference).

Another test addresses KPC-2 enzyme (Klebsiella pneumoniae, UniProt Q9F663). Put plainly: Enzyme activity determination (nitrocefin hydrolysis). Type of test: biochemical. The procedure: Enzyme activity was measured using a Shimadzu UV-1900i spectrophotometer in 50 mM phosphate buffer (pH 7.0) to measure the inhibitory effect. The total enzyme activity reaction system is 500 μL. The reaction temperature was set to 37° C., and 0.3 nM KPC-2 enzyme was pre-incubated with different concentrations of AN2718 in phosphate buffer (pH 7.0) for 5 minutes before adding 60 μL nitrocefin. Measure the hydrolysis inhibition effect of AN2718 on nitrocefin by detect change of absorbance. The 50% inhibition concentration is determined by the inhibition curve of the control activity percentage and inhibitor concentration. Repeat the experiment three times.

Another test concerns the target KPC-41 (Klebsiella pneumoniae, UniProt Q9F663). The test is described as above. The note with it: read-out: semi-inhibitory concentration IC50 on KPC-41. It is filed as biochemical.
For test [1], the system named is KPC-74T. Nature of the test: Chessboard minimum inhibitory concentration determination. It is filed as cell-based, Escherichia coli. Conditions: for MIC: Escherichia coli; for MIC value decreased: combined use of the two drugs versus alone. An excerpt:
(§1) KPC-74T, carrying Escherichia coli containing KPC-2 plasmid, constructed by the laboratory; Hvkp, obtained through laboratory isolation; AN2718 purchased from Target Mol Technology Co., Ltd; BBLTM Mueller Hinton II Broth was purchased from BD Company in the United States; Meropenem was purchased from Meilun Biotechnology Co., Ltd; LB Broth was purchased from Qingdao High tech Industrial Park Haibo Biotechnology Co., Ltd; Enzyme marker (UV1900i, Shimadzu company);
This study referenced the standards of the Clinical and Laboratory Standards Institute (CLSI) in the United States and the laboratory's previous improvement methods and measured partial inhibitory concentrations through a chessboard test. Firstly, KPC-74T was activated, inoculated on Lysogeny broth, and cultured overnight at 37° C. Add 100 μL MHB medium to each well in a sterile 96 well plate; Then add AN2718 solution 100 μL to the first line and perform gradient dilution along the vertical axis. Then, add Meropenem solution to the first column and dilute it in a gradient along the abscissa. Finally, in addition to the negative control, add 100 μL of bacterial suspension ≈1×10^6 CFUs mL^−1. After completing the above operations, place the 96 well plate in a 37° C. constant temperature incubator and incubate for 18 hours. Observe the bacterial solution of each well under appropriate light, and observe the drug concentration corresponding to the complete absence of bacterial growth wells, which is MIC. Determine synergistic effects by calculating FIC. FIC can be calculated according to formula (1): […]
MICa is a separate MIC of compound a; MICab is the MIC of compound a combined with compound b; MICb is a separate MIC of compound b; MICba is the MIC of compound b combined with compound a; FICa is the FIC of compound a; FICb is the FIC of compound b. According to the standard definition, FICI≤0.5 is defined as synergy; 0.5<FICI≤1 is defined as an additive; […] is defined as no difference; FICI>4 is defined as an antagonistic effect.

Test [2] has as its system KPC-74T. Put plainly: Time sterilization (time-killing) curve. It is filed as cell-based, Escherichia coli.
Description: as §1
Inoculate overnight cultured bacterial KPC-74T in a 1:10000 ratio onto MHB medium and incubate at 225 rpm at 37° C. for 2 hours (early exponential growth phase) or 5 hours (late exponential growth phase). After incubation, add the corresponding concentration of AN2718 or Meropenem solution and incubate it at 37° C. and 225 rpm. Set the time point to 0, 1, 3, 5, 7, and 24 hours. At each time point, absorb 100 μL bacterial solution, centrifuged at 10000 g rotating speed for 1 min, resuspended with PBS, diluted in ten fold gradient, and absorbed 10 μL of each gradient drops onto MHA plate. Place the plates in a 37° C. incubator for 24 hours and remove them. Count each plate and calculate the total bacterial count. Repeat the experiment three times.

KPC-93, sequence (Q9F663 25-293 limits assumed): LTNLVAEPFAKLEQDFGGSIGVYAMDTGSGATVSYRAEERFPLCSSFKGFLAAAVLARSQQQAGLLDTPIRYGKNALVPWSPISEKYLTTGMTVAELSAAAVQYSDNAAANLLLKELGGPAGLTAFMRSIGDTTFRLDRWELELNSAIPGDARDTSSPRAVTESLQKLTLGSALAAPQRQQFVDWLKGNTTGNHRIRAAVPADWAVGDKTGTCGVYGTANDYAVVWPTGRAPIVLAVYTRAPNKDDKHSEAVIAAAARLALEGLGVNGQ
KPC-2 enzyme, sequence (Q9F663 25-293 limits assumed): as above
KPC-41, sequence (Q9F663 1-268, added parts left off, change not shown, form open): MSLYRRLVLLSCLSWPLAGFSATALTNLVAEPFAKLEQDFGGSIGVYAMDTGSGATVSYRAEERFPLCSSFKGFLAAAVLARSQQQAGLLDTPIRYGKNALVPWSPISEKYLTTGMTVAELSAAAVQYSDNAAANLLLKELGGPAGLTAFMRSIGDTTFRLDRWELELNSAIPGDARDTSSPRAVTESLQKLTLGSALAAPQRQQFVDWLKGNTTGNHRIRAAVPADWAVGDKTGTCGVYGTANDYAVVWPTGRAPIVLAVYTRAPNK

Regarding `OB1OCc2cc(Cl)ccc21` [AN2718, 5-chloro-1,3-dihydro-1-hydroxy-2,1-benzoxaborole], the IC50 is 116 nM at KPC-93, 499 nM at KPC-2 enzyme and 370000 nM on KPC-41. Further, in the test with Hvkp2 strain, the survival rate came to 40%. In the test with Hvkp2 strain (between 36h and 132h, mice infected with Hvkp2), the “survival rate versus Meropenem group” value is “significantly higher”. Besides, the MIC with KPC-74T [1] (18 h, read-out: AN2718 S-MIC) worked out at 13.4 µg/mL. Further, in the test on KPC-74T [1] (KPC-74T), the MIC value decreased result is “four”. Also, in the test on KPC-74T [2] (AN2718 single use, up to 160 μM (26.88 μg/mL), within 24 hours), the “effect on the growth of KPC-74T” value is “has no effect on the growth of KPC-74T”.

For `C[C@@H](O)[C@H]1C(=O)N2C(C(=O)O)=C(S[C@@H]3CN[C@H](C(=O)N(C)C)C3)[C@H](C)[C@H]12` [Meropenem], in the test with Hvkp2 strain, the survival rate was found to be 20%. For the same molecule, the FICI in the test with KPC-74T [1] (AN2718 in combination with Meropenem, KPC-74T) worked out at 0.25. In addition, in the test with KPC-74T [1] (AN2718 in combination with Meropenem, KPC-74T, from FICI), the Result result is on record as “synergy (FICI≤0.5 is defined as synergy)”. The MIC in the test on KPC-74T [1] (read-out: Drug S-MIC) came out at 64 µg/mL. The MIC value decreased in the test on KPC-74T [1] (KPC-74T) is on record as 1024 times. Moreover, the “killing of bacteria within 24 h” value with KPC-74T [2] (Meropenem 4 μg/mL and 8 μg/mL with AN2718 40 μM) is “could not kill all bacteria”; in the test with KPC-74T [2] (Meropenem 4 μg/mL with AN2718 80 μM), “can kill most of the bacteria”; in the test with KPC-74T [2] (Meropenem 4 μg/mL with AN2718 160 μM), “can kill all bacteria”; with KPC-74T [2] (Meropenem 128 μg/mL with AN2718 20 μM), “all bacteria can be killed”; in the test with KPC-74T [2] (Meropenem alone 128 μg/mL), “still cannot kill all bacteria”; in the test with KPC-74T [2] (Meropenem remaining concentrations (above 4 μg/mL) with AN2718 80 μM) it was “can still kill all the bacteria”. Besides, in the test on KPC-74T [2] (Meropenem rest concentrations (above 8 μg/mL) with AN2718 40 μM), the “killing of bacteria within 24 h” value was “could still effectively kill bacteria”. Moreover, the “number of colonies versus control group” value in the test with KPC-74T [2] (Meropenem alone 2 μg/mL˜64 μg/mL, at 24 hours) was “no significant difference”. Also, the “effect on the growth of KPC-74T” value is reported as “a certain inhibitory effect” in the test with KPC-74T [2] (Meropenem alone 2 μg/mL˜64 μg/mL, first 5 hours) and “significant inhibitory effect” with KPC-74T [2] (Meropenem alone 128 μg/mL).

The values above are taken from US12642808B2, “Methods of inhibiting Klebsiella pneumoniae carbapenemase-2” (priority 2023, dated 2026).
